pEC50: −log10 of the molar value.
Tests used:
Format in all cases: cell-based
[1] = test system: SARS-CoV-2 (D614G strain); conditions: read-out: EC50, replication of SARS-CoV-2
[2] = test system: SARS-CoV-2 D614G strain
[3] = test system: European D614G strain of SARS-CoV-2 (BavPat1/2020)

## O=C(Nc1ccc([N+](=O)[O-])cc1Cl)c1cc(Cl)ccc1O [niclosamide ethanolamine]
[1]
  pEC50: 7.00
[2]
  pEC50: 7.22
[3]
  reduction of intracellular viral RNA level versus non-treated control: 3 fold
[3]; read-out: EC50, apical infectious titer (TCID50)
  pEC50: 6.02

— patent US20230190685A1, “FORMULATION” (UNION Therapeutics A/S, priority 2020, published 2023)
